Where a name gives a salt, the structure may show the parent alone.
What was measured:
DNMT1 = DNMT1 (Homo sapiens, UniProt P26358); assay: DNMT1 enzyme activity assay (TR-FRET, EPIgeneous methyltransferase assay); format: biochemical
Description: The biochemical assay to measure DNMT1 enzyme activity relies on time-resolved fluorescence energy transfer (TR-FRET) between lumi4-Tb (donor) and d2 (acceptor) using the EPIgeneous methyltransferase assay (CisBio Cat#62SAHPEB). […] TR-FRET signal is inversely proportional to the concentration of SAH, product of DNMT1 enzyme activity, in the sample.
The human DNMT1 was obtained from Reaction Biology Corp. (Cat# DMT-21-124). […] Final percentage of DMSO was 0.5%. • 2 μl of 1 nM DNMT1 enzyme diluted in assay buffer.
(§1) For each well, fluorescence was measured at 620 nm and 665 nm. A ratio (665 nm/620 nm) was then calculated in order to minimize medium interferences. Positive control was obtained in the presence of the vehicle of the compounds. Negative control was obtained in the absence of G9a enzyme activity. Calculated IC50 values were determined using GraphPrism using 4-parameters inhibition curve.

human G9a enzyme = target: T1, human G9a enzyme (Homo sapiens, UniProt Q96KQ7); assay: G9a enzyme activity assay (TR-FRET); format: biochemical
T1 sequence (Q96KQ7 1-1210): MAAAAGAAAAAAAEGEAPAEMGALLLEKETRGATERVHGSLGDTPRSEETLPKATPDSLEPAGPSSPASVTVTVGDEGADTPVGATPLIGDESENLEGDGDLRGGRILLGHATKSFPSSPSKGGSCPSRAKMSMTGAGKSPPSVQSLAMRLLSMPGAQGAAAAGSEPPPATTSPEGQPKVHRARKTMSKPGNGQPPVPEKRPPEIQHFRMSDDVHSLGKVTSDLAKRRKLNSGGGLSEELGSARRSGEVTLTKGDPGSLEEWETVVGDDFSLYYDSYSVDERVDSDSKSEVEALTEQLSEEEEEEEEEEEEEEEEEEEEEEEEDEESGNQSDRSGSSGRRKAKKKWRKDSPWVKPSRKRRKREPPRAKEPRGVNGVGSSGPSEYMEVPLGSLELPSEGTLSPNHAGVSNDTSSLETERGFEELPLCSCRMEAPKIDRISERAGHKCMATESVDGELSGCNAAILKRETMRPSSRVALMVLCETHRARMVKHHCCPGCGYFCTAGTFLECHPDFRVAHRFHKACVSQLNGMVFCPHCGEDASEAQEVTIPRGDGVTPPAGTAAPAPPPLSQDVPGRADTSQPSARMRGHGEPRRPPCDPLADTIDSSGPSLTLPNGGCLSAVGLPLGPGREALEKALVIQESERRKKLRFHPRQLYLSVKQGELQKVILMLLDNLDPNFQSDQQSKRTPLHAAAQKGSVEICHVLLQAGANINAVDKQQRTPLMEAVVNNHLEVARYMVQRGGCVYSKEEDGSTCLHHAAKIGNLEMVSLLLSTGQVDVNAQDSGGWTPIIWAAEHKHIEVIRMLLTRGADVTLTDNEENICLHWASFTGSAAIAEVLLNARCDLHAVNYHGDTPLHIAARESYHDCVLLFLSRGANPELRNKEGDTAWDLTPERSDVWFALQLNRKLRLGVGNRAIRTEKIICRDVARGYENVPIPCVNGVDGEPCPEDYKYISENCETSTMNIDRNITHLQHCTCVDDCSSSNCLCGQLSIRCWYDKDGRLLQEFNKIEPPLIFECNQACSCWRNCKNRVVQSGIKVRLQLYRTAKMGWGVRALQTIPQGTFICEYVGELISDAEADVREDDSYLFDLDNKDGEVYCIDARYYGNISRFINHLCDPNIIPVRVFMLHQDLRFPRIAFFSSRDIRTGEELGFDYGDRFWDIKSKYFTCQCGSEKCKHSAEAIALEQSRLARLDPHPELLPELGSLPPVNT
Description: The biochemical assay to measure G9a enzyme activity relies on time-resolved fluorescence energy transfer (TR-FRET) between europium cryptate (donor) and XL665 (acceptor). […] The human G9a enzyme expressed in a baculovirus infected Sf9 cell expression system was obtained from BPS Biosciences (Cat. #51001). […] Final percentage of DMSO was 0.5%. • 2 μl of 1 nM G9a enzyme diluted in assay buffer. […] Final concentration 150 nM. • Then, add 5 μl of streptavidin XL665 beads. Final concentration of 16 μM. • Read the plate after 1 hour of incubation at room temperature.
as §1

Chain of DNMT1 (P26358 whole entry): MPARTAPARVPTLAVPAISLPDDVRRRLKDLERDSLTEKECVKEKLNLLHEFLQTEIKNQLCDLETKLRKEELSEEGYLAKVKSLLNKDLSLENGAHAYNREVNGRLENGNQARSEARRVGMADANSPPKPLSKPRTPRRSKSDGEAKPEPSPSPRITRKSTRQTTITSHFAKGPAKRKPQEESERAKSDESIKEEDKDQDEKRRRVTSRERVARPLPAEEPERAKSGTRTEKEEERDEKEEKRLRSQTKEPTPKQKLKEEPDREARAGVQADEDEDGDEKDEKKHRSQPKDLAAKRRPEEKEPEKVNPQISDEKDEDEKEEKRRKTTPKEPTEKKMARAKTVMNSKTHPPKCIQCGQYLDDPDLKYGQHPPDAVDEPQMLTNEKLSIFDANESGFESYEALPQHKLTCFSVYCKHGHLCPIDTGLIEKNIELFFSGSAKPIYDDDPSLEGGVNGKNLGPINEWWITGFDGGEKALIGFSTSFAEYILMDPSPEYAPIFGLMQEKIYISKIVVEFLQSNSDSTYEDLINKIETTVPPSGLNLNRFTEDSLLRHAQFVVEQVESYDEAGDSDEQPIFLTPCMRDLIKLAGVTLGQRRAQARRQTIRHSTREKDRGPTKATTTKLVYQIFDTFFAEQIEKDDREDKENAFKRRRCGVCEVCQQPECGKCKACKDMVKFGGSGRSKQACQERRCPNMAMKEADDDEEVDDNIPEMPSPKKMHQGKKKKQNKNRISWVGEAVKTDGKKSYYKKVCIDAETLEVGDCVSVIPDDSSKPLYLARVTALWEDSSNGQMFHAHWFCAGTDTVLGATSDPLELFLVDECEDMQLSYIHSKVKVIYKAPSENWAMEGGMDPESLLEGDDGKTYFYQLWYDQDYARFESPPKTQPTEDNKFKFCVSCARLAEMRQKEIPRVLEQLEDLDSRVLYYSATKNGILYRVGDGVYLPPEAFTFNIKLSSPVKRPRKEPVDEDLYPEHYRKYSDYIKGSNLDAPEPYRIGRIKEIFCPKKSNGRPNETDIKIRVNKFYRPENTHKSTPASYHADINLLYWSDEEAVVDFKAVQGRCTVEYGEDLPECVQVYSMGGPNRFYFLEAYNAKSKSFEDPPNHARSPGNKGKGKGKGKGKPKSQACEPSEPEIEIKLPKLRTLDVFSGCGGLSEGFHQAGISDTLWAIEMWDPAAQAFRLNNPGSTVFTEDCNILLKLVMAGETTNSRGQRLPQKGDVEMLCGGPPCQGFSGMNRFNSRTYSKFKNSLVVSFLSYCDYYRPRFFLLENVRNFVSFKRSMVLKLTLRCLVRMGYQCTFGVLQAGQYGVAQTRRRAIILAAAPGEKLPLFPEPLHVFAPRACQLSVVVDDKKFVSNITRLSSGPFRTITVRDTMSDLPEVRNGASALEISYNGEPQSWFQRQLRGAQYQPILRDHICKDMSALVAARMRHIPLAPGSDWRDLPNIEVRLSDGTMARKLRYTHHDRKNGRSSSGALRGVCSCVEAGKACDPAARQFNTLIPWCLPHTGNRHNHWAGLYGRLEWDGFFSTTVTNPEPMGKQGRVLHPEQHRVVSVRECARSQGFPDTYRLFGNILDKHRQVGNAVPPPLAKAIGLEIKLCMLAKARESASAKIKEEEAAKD

Row | Compound | IC50 (DNMT1) [nM] | IC50 (human G9a enzyme) [nM]
1 | COc1cc2c(NC3CCN(C)CC3)cc(-c3ccc(CO)o3)nc2cc1OCCCN1CCCC1 [Compound 9-01, [5-[6-methoxy-4-[(1-methyl-4-piperidyl)amino]-7-(3-pyrrolidin-1-ylpropoxy)-2-quinolyl]-2-furyl]methanol; 2,2,2-trifluoroacetic acid] | 500 to 1000 | < 100
2 | COc1cc2c(NC3CC4(CCNCC4)C3)cc(-c3ccc(C)[nH]3)nc2cc1OCCCN1CCCC1 [Compound 4-02, N-(7-azaspiro[3.5]nonan-2-yl)-6-methoxy-2-(5-methyl-1H-pyrrol-2-yl)-7-(3-pyrrolidin-1-ylpropoxy)quinolin-4 amine; hydrochloride] | 1000 to 10000 | < 100
3 | COc1cc2c(NC3CCN(C)CC3)cc(-c3ccc(C#N)o3)nc2cc1OCCCN1CCCC1 [Compound 10-01, 5-[6-methoxy-4-[(1-methyl-4-piperidyl)-amino]-7-(3-pyrrolidin-1-ylpropoxy)-2-quinolyl]furan-2-carbonitrile; 2,2,2-trifluoroacetic acid] | 1000 to 10000 | 100 to 500
4 | COc1cc2c(NC3CCN(C)C(=O)C3)cc(-c3ccc(C)[nH]3)nc2cc1OCC1CCNCC1 (centres unmarked) [Compound 11-11] | 500 to 1000 | 500 to 1000
5 | COc1cc2c(NC3CCCC3)cc(-c3ccc(C)[nH]3)nc2cc1OCCCN1CCCC1 [Compound 3-38] | 100 to 500 | < 100
6 | COc1cc2c(NC3CCN(C)CC3)cc(-c3ccc(C)o3)nc2cc1OC1CCN(C(=O)OC(C)(C)C)CC1 [Compound 19-03] | 1000 to 10000 | 1000 to 10000
7 | COc1cc2c(NC3CCN(C)CC3)cc(-c3cc[nH]c(=O)c3)nc2cc1OCCCN1CCCC1 [Compound 3-37] | 1000 to 10000 | 100 to 500
8 | COc1cc2c(NC3CCN(C)CC3)cc(C)nc2cc1OCCCN1CCCC1 [Compound 3-23] | 500 to 1000 | < 100
9 | COc1cc2c(NC3CCN(C)CC3)cc(-c3cccnc3)nc2cc1OCCCN1CCCC1 [Compound 3-30] | 1000 to 10000 | < 100
10 | CCc1ccc(-c2cc(NC3CCC34CCN(C3CC3)CC4)c3cc(OC)c(OCCCN4CCCC4)cc3n2)o1 (centres unmarked) [Compound 19-02, N-(7-cyclopropyl-7-azaspiro[3.5]nonan-3-yl)-2-(5-ethyl-2-furyl)-6-methoxy-7-(3-pyrrolidin-1-ylpropoxy)quinolin-4-amine; 2,2,2-trifluoroacetic acid] | 100 to 500 | 500 to 1000
11 | COCCNc1cc(-c2ccc(C)o2)nc2cc(OCCCN3CCCC3)c(OC)cc12 [Compound 3-12] | 1000 to 10000 | 100 to 500
12 | COc1cc2c(NC3CCN(C)CC3)cc(-c3cc4ccccc4o3)nc2cc1OCCCN1CCCC1 [Compound 3-25] | 1000 to 10000 | 1000 to 10000
13 | COc1cc2c(NC3CCN(C)CC3)cc(-c3cc(C)oc3C)nc2cc1OCCCN1CCCC1 [Compound 3-35] | 500 to 1000 | < 100
14 | COc1cc2c(NC3CCN(C)CC3)cc(C3CCC(C)O3)nc2cc1OCCCN1CCCC1 (centres unmarked) [Compound 15-01, 6-methoxy-N-(1-methyl-4-piperidyl)-2-(5-methyltetrahydrofuran-2-yl)-7-(3-pyrrolidin-1-ylpropoxy)quinolin-4-amine; 2,2,2-trifluoroacetic acid] | 1000 to 10000 | < 100
15 | COc1cc2c(NCC3CCCC3)cc(-c3ccc(C)o3)nc2cc1OCCCN1CCCC1 [Compound 3-14] | 1000 to 10000 | 1000 to 10000
16 | COc1cc(NC2CCN(C)CC2)c2cc(OC)c(OCCCN3CCCC3)cc2n1 [Compound 2-01] | 1000 to 10000 | 100 to 500
17 | COc1cc2c(NCC3CCN(C)C(=O)C3)cc(-c3ccc(C)[nH]3)nc2cc1OCC1CCNCC1 (centres unmarked) [Compound 11-07] | 500 to 1000 | 500 to 1000

Row | Compound | IC50 (DNMT1) [nM] | IC50 (human G9a enzyme) [nM]
18 | COc1cc2c(NC3CC3)cc(-c3ccc(C)[nH]3)nc2cc1OCC1CCNCC1 [Compound 11-08] | 1000 to 10000 | 1000 to 10000
19 | COc1cc2c(NCCC(F)(F)F)cc(-c3ccc(C)o3)nc2cc1OCCCN1CCCC1 [Compound 3-11] | 1000 to 10000 | 100 to 500
20 | COc1cc2c(NC3CCN(C)CC3)cc(-c3ccc(CN(C)C)o3)nc2cc1OCCCN1CCCC1 [Compound 8-01, 2-[5-[(dimethylamino)methyl]-2-furyl]-6-methoxy-N-(1-methyl-4-piperidyl)-7-(3-pyrrolidin-1-ylpropoxy)quinolin-4-amine; 2,2,2-trifluoroacetic acid] | 1000 to 10000 | 100 to 500
21 | COc1cc2c(NC3CCC(C)(O)CC3)cc(-c3ccc(C)o3)nc2cc1OCCCN1CCCC1 (centres unmarked) [Compound 3-45] | 1000 to 10000 | 100 to 500
22 | COc1cc2c(NC3CCN(C)CC3)cc(N3CCN(C)CC3)nc2cc1OCCCN1CCCC1 [Compound 1-02] | 500 to 1000 | < 100
23 | COc1cc2c(NCC3CCN(C)CC3)cc(-c3ccc(C)[nH]3)nc2cc1OCC1CCNCC1 [Compound 11-06] | 100 to 500 | 100 to 500
24 | COc1cc2c(NC3CC4(CCNCC4)C3)cc(-c3ccc(C)o3)nc2cc1OCC1CCNCC1 [Compound 11-10] | 100 to 500 | 1000 to 10000
25 | COc1cc2c(NC3CCNC(=O)C3)cc(-c3ccc(C)o3)nc2cc1OCCCN1CCCC1 (centres unmarked) [Compound 3-18] | 1000 to 10000 | 100 to 500
26 | COc1cc2c(NC3CCC34CCNCC4)cc(-c3ccc(C)o3)nc2cc1OCCCN1CCCC1 (centres unmarked) [Compound 4-01, N-(7-azaspiro[3.5]nonan-3-yl)-6-methoxy-2-(5-methyl-2-furyl)-7-(3-pyrrolidin-1-ylpropoxy)quinolin-4-amine; 2,2,2-trifluoroacetic acid] | 100 to 500 | < 100
27 | CCc1ccc(-c2cc(NC3CC4(CCN(C5CC5)CC4)C3)c3cc(OC)c(OCCCN4CCCC4)cc3n2)o1 [Compound 19-01, N-(7-cyclopropyl-7-azaspiro[3.5]nonan-2-yl)-2-(5-ethyl-2-furyl)-6-methoxy-7-(3-pyrrolidin-1-ylpropoxy)quinolin-4-amine; 2,2,2-trifluoroacetic acid] | 500 to 1000 | 1000 to 10000
28 | COc1cc2c(NC3CCOCC3)cc(-c3ccc(C)o3)nc2cc1OCCCN1CCCC1 [Compound 3-16] | 1000 to 10000 | 100 to 500
29 | Cc1ccc(-c2cc(NC3CCN(C)CC3)c3cc(OCC(F)(F)F)c(OCCCN4CCCC4)cc3n2)o1 [Compound 13-01, 2-(5-methyl-2-furyl)-N-(1-methyl-4-piperidyl)-7-(3-pyrrolidin-1-ylpropoxy)-6-(2,2,2-trifluoroethoxy)quinolin-4-amine; 2,2,2-trifluoroacetic acid] | 500 to 1000 | 500 to 1000
30 | COc1cc2c(NC3CCN(C)C(=O)C3)cc(-c3ccc(C)[nH]3)nc2cc1OCC1CCN(C)CC1 (centres unmarked) [Compound 12-04] | 500 to 1000 | 1000 to 10000
31 | COc1cc2c(NC3CCN(C)CC3)cc(-c3ccccc3C)nc2cc1OCCCN1CCCC1 [Compound 3-34] | 1000 to 10000 | < 100
32 | CCNCc1ccc(-c2cc(NC3CCN(C)CC3)c3cc(OC)c(OCCCN4CCCC4)cc3n2)o1 [Compound 8-02] | 500 to 1000 | < 100
33 | COc1cc2c(NC3CCN(C)CC3)cc(C3=CCOCC3)nc2cc1OCCCN1CCCC1 [Compound 6-02] | 500 to 1000 | < 100
34 | COc1cc2c(NC3CC4(CCNCC4)C3)cc(-c3ccc(C)[nH]3)nc2cc1OCC1CCNCC1 [Compound 11-09] | 100 to 500 | 100 to 500

— patent US9840500B2, “Compounds as dual inhibitors of histone methyltransferases and DNA methyltransferases” (FUNDACIÓN PARA LA INVESTIGACIÓN MÉDICA APLICADA, priority 2014, dated 2017)
